Here are results for 19 compounds from patent publication US20240059703A1 (AMGEN INC., priority 2021, published 2024).

Assay [1] concerns A549 (human lung carcinoma) cells. In words: Cell Viability Assay (CellTiter-Glo), A549. It counts as cell-based. As to conditions: Homo sapiens, A549, 72 h. The method in brief:
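Seeding at 1.67E+04 cells/mL is followed by overnight attachment at 37° C., 5% CO2. Serially diluted compound is added for 72 h. Viability is read by CellTiter-Glo luminescence, scaled to DMSO and fitted (4-parameter logistic) to give IC50.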

Assay [2] deals with MIA PaCa-2 (human pancreatic carcinoma) cells. As to the kind of experiment: Cell Viability Assay (CellTiter-Glo), MIA PaCa-2. The format is cell-based. The note with it: Homo sapiens, MIA PaCa-2, 72 h. Here is the method:
Serially-diluted compound or DMSO was added to the cells, and plates were incubated at 37° C., 5% CO2 for 72 h. Cell viability was measured using a CellTiter-Glo® Luminescent Cell Viability Assay kit (Promega) according to the manufacturer's protocol. The luminescence signal of treated samples was normalized to DMSO control, and data were analyzed using a 4-parameter logistic model to calculate IC50 values.

The next assay addresses KRAS G12C (Homo sapiens (Human), UniProt P01116, C118A/G12C). As to the kind of experiment: 2 h coupled exchange assay. It counts as biochemical. As to conditions: Avg 2 h Coupled exchange IC50, 2 h compound pre-incubation. How it is done:
The term “2 h coupled exchange assay” or “20 h coupled exchange assay” as used herein refers to the assay described in the Section entitled “BIOLOGICAL EVALUATION.”

KRAS G12C, sequence (P01116 other isoform, or with tags, fused parts or gaps G12C/C118A): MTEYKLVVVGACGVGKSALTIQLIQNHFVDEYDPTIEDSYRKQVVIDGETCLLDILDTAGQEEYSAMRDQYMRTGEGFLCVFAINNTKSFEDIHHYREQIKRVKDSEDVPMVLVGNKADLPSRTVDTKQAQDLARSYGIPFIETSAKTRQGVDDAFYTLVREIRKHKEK

For `C=CC(=O)N1CC2(CCN(c3nc4c(c(-c5c(C)ccc6[nH]ncc56)c3C)CCN(C3CC3)C4)C2)C1` [Example 18-16, 1-(6-(7-cyclopropyl-3-methyl-4-(5-methyl-1H-indazol-4-yl)-5,6,7,8-tetrahydro-1,7-naphthyridin-2-yl)-2,6-diazaspiro[3.4]octan-2-yl)-2-propen-1-one], the values for the IC50 (in assay [1]; in assay [2]; against KRAS G12C) were greater than 5 µM, 188 nM and 355 nM, respectively.

As for `C=CC(=O)N1CC2(CCN(c3nc4c(c(-c5cccc6cc(O)ccc56)c3C)CCN(C3CC3)C4)C2)C1` [Example 18-17, 1-(6-(7-cyclopropropyl-4-(6-hydroxy-1-naphthalenyl)-3-methyl-5,6,7,8-tetrahydro-1,7-naphthyridin-2-yl)-2,6-diazaspiro[3.4]octan-2-yl)-2-propen-1-one], the figures for the IC50 (in assay [1]; in assay [2]; at KRAS G12C) were greater than 5 µM, 133 nM and 79 nM, respectively.

With `C=CC(=O)N1CC2(CCN(c3nc4c(c(-c5cccc6cc(O)ccc56)c3C)CCN(CC(O)C(F)(F)F)C4)C2)C1` [Example 18-18, 1-(6-(4-(6-hydroxy-1-naphthalenyl)-3-methyl-7-((2R)-3,3,3-trifluoro-2-hydroxypropyl)-5,6,7,8-tetrahydro-1,7-naphthyridin-2-yl)-2,6-diazaspiro[3.4]octan-2-yl)-2-propen-1one|1-(6-(4-(6-hydroxy-1-naphthalenyl)-3-methyl-7-((2S)-3,3,3-trifluoro-2-hydroxypropyl)-5,6,7,8-tetrahydro-1,7-naphthyridin-2-yl)-2,6-diazaspiro[3.4]octan-2-yl)-2-propen-1-one], the IC50 in assay [1] was greater than 5 µM; in assay [2] it was 402 nM; against KRAS G12C it was 106 nM.

`C=CC(=O)N1CC2(CCN(c3nc4c(c(-c5c(C)ccc6cnn(C)c56)c3C)CCN(C3CCCN(C)C3)C4)C2)C1` [Example 18-20, 1-(6-(4-(1,6-dimethyl-1H-indazol-7-yl)-3-methyl-7-((3R)-1-methyl-3-piperidinyl)-5,6,7,8-tetrahydro-1,7-naphthyridin-2-yl)-2,6-diazaspiro[3.4]octan-2-yl)-2-propen-1-one|1-(6-(4-(1,6-dimethyl-1H-indazol-7-yl)-3-methyl-7-((3S)-1-methyl-3-piperidinyl)-5,6,7,8-tetrahydro-1,7-naphthyridin-2-yl)-2,6-diazaspiro[3.4]octan-2-yl)-2-propen-1-one]: the figures for the IC50 (in assay [1]; in assay [2]; at KRAS G12C) were greater than 25 µM, 135 nM and 374 nM, respectively.

With `C=CC(=O)N1CC2(CCN(c3nc4c(c(-c5cccc(F)c5O)c3C)CCN(c3scnc3C)C4)C2)C1` [Example 18-21, 1-(6-(4-(3-fluoro-2-hydroxyphenyl)-3-methyl-7-(4-methyl-1,3-thiazol-5-yl)-5,6,7,8-tetrahydro-1,7-naphthyridin-2-yl)-2,6-diazaspiro[3.4]octan-2-yl)-2-propen-1-one], the IC50 in assay [1] is greater than 25 µM; in assay [2], 3370 nM; against KRAS G12C, 800 nM.

With `C=CC(=O)N1CC2(CCN(c3nc4cc(-c5scnc5C)cnc4c(-c4cccc(C)c4C)c3C#N)C2)C1` [Example 19-1, 4-(2,3-Dimethylphenyl)-7-(4-methyl-1,3-thiazol-5-yl)-2-(2-(2-propenoyl)-2,6-diazaspiro[3.4]octan-6-yl)-1,5-naphthyridine-3-carbonitrile], the IC50 was greater than 5 µM in assay [1], 374 nM in assay [2] and 74 nM on KRAS G12C.

Regarding `C=CC(=O)N1CC2(CCN(c3nc4cc(-c5scnc5C)ccc4c(-c4ccccc4C)c3C#N)C2)C1` [Example 19-2, 4-(2-methylphenyl)-7-(4-methyl-1,3-thiazol-5-yl)-2-(2-(2-propenoyl)-2,6-diazaspiro[3.4]octan-6-yl)-3-quinolinecarbonitrile], the IC50 in assay [1] is greater than 5 µM; in assay [2] it was 1450 nM; at KRAS G12C it was 126 nM.

Take `C=CC(=O)N1CC2(CCN(c3nc4cc(-c5scnc5C)ccc4c(-c4c(O)cccc4F)c3C#N)C2)C1` [Example 19-3, 4-(2-fluoro-6-hydroxyphenyl)-7-(4-methyl-1,3-thiazol-5-yl)-2-(2-(2-propenoyl)-2,6-diazaspiro[3.4]octan-6-yl)-3-quinolinecarbonitrile]: the IC50 in assay [1] was determined as 4.18 µM; in assay [2], 717 nM; against KRAS G12C, 58 nM.

For the compound `C=CC(=O)N1CC2(CCN(c3nc4cc(-c5scnc5C)cnc4c(-c4ccc(F)cc4F)c3C#N)C2)C1` [Example 19-5, 4-(2,4-difluorophenyl)-7-(4-methyl-1,3-thiazol-5-yl)-2-(2-(2-propenoyl)-2,6-diazaspiro[3.4]octan-6-yl)-1,5-naphthyridine-3-carbonitrile], the IC50 is greater than 5 µM in assay [1], 452 nM in assay [2] and 96 nM against KRAS G12C.

For the compound `C=CC(=O)N1CC2(CCN(c3nc4cc(-c5scnc5C)cnc4c(-c4ccccc4OC)c3C#N)C2)C1` [Example 19-6, 4-(2-methoxyphenyl)-7-(4-methyl-1,3-thiazol-5-yl)-2-(2-(2-propenoyl)-2,6-diazaspiro[3.4]octan-6-yl)-1,5-naphthyridine-3-carbonitrile], the values for the IC50 (in assay [1]; in assay [2]; on KRAS G12C) were greater than 5 µM, 1130 nM and 363 nM, respectively.

Turning to `C=CC(=O)N1CC2(CCN(c3nc4cc(-c5cncn5C)cnc4c(-c4ccccc4F)c3C#N)C2)C1` [Example 19-7, 4-(2-fluorophenyl)-7-(1-methyl-1H-imidazol-5-yl)-2-(2-(2-propenoyl)-2,6-diazaspiro[3.4]octan-6-yl)-1,5-naphthyridine-3-carbonitrile], the IC50 in assay [1] worked out at 14.1 µM; in assay [2] it was 495 nM; at KRAS G12C, 789 nM.

Take `C=CC(=O)N1CC2(CCN(c3nc4cc(-c5scnc5C)cnc4c(-c4ccc(F)cc4)c3C#N)C2)C1` [Example 19-8, 4-(4-fluorophenyl)-7-(4-methyl-1,3-thiazol-5-yl)-2-(2-(2-propenoyl)-2,6-diazaspiro[3.4]octan-6-yl)-1,5-naphthyridine-3-carbonitrile]: the IC50 in assay [1] was found to be 11.2 µM; in assay [2], 320 nM; at KRAS G12C it was 280 nM.

Take `C=CC(=O)N1CC2(CCN(c3nc4cc(-c5sc(CO)nc5C)cnc4c(-c4ccccc4Cl)c3C#N)C2)C1` [Example 19-9, 4-(2-chlorophenyl)-7-(2-(hydroxymethyl)-4-methyl-1,3-thiazol-5-yl)-2-(2-(2-propenoyl)-2,6-diazaspiro[3.4]octan-6-yl)-1,5-naphthyridine-3-carbonitrile]: the IC50 in assay [1] is greater than 5 µM; in assay [2], 204 nM; on KRAS G12C, 56 nM.

Consider `C=CC(=O)N1CC2(CCN(c3nc4cc(-c5scnc5CO)cnc4c(-c4ccccc4F)c3C#N)C2)C1` [Example 19-10, 4-(2-fluorophenyl)-7-(4-(hydroxymethyl)-1,3-thiazol-5-yl)-2-(2-(2-propenoyl)-2,6-diazaspiro[3.4]octan-6-yl)-1,5-naphthyridine-3-carbonitrile], for which the values for the IC50 (in assay [1]; in assay [2]; at KRAS G12C) were 15.3 µM, 1130 nM and 113 nM, respectively.

Consider `C=CC(=O)N1CC2(CCN(c3nc4cc(-c5scnc5C)ccc4c(-c4ccccc4Cl)c3C#N)C2)C1` [Example 20-1, 4-(2-chlorophenyl)-7-(4-methyl-1,3-thiazol-5-yl)-2-(2-(2-propenoyl)-2,6-diazaspiro[3.4]octan-6-yl)-3-quinolinecarbonitrile], for which the results for the IC50 (in assay [1]; in assay [2]; at KRAS G12C) were greater than 5 µM, 1560 nM and 149 nM, respectively.

Turning to `C=CC(=O)N1CC2(CCN(c3nc4cc(-c5scnc5C)ccc4c(-c4ccccc4F)c3C#N)C2)C1` [Example 20-2, 4-(2-fluorophenyl)-7-(4-methyl-1,3-thiazol-5-yl)-2-(2-(2-propenoyl)-2,6-diazaspiro[3.4]octan-6-yl)-3-quinolinecarbonitrile], the IC50 in assay [1] was greater than 5 µM; in assay [2] it was 1440 nM; against KRAS G12C it was 146 nM.

In the case of `C=CC(=O)N1CC2(CCN(c3nc4cc(OC)ccc4c(-c4ccccc4Cl)c3C#N)C2)C1` [Example 20-5, 4-(2-chlorophenyl)-7-methoxy-2-(2-(2-propenoyl)-2,6-diazaspiro[3.4]octan-6-yl)-3-quinolinecarbonitrile], the IC50 in assay [1] turned out to be 9.11 µM; in assay [2], 5510 nM; on KRAS G12C it was 572 nM.

For the compound `C=CC(=O)N1CC2(CCN(c3nc4cc(-c5scnc5C)ccc4c(-c4cccc(C)c4C)c3C#N)C2)C1` [Example 20-6, 4-(2,3-dimethylphenyl)-7-(4-methyl-1,3-thiazol-5-yl)-2-(2-(2-propenoyl)-2,6-diazaspiro[3.4]octan-6-yl)-3-quinolinecarbonitrile], the IC50 was greater than 5 µM in assay [1], 1550 nM in assay [2] and 124 nM against KRAS G12C.

On to `C=CC(=O)N1CC2(CCN(c3nc4cc(-c5scnc5C)cnc4c(-c4ccccc4Cl)c3C#N)C2)C1` [Example 20-7, 4-(2-chlorophenyl)-7-(4-methyl-1,3-thiazol-5-yl)-2-(2-(2-propenoyl)-2,6-diazaspiro[3.4]octan-6-yl)-1,5-naphthyridine-3-carbonitrile], for which the IC50 in assay [1] is greater than 5 µM; in assay [2], 534 nM; on KRAS G12C it was 131 nM.
